Assay results: patent publication US6967196B1, “Sulfonamide compounds and uses thereof” (Bristol-Myers Squibb Company, priority 1999, dated 2005)
Structures can show the parent of a compound that is named as a salt. Where two headings read alike, the source gives them in different places. Values belong to the compound of their own block, whether it stands above or below them.

Test system: amyloid β production in transfected H4 (human neuroglioma) cells stably expressing APP constructs
Assay: In vitro cell-based assay of inhibitors of amyloid β production (ELISA)
In short: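 Aβ secreted into the medium was determined by a two-antibody ELISA specific for the Aβ C-terminus, calibrated with known Aβ amounts. Before that, compounds (10-100 μM initially) were left on the cells for roughly 16 hours.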

[1] = Homo sapiens, 16 h, transfected H4 cells stably expressing APP, approximately 16 hours incubation, amyloid β in medium by ELISA, Table B, read-out: ACTIVITY (IC50, inhibition of amyloid β production)
[2] = transfected H4 cells stably expressing APP, approximately 16 hours incubation, amyloid β in medium by ELISA, Table B, read-out: ACTIVITY (IC50, inhibition of amyloid β production)
[3] = transfected H4 cells stably expressing APP constructs, approximately 16 hours incubation, amyloid β in medium by ELISA, read-out: ACTIVITY (IC50, inhibition of amyloid β production)
[4] = Homo sapiens, 16 h, transfected H4 cells stably expressing APP, approximately 16 hours incubation, amyloid β in medium by ELISA, read-out: ACTIVITY (IC50, inhibition of amyloid β production)
[5] = Homo sapiens, 16 h, transfected H4 cells expressing APP, approximately 16 hours incubation, amyloid β in medium by ELISA, read-out: ACTIVITY (IC50, inhibition of amyloid β production)
[6] = transfected H4 cells stably expressing APP, approximately 16 hours incubation, amyloid β in medium by ELISA, read-out: ACTIVITY (IC50, inhibition of amyloid β production)
[7] = transfected H4 cells stably expressing APP, approx. 16 h incubation, amyloid β in medium by ELISA, read-out: ACTIVITY (IC50, inhibition of amyloid β production)

Compound: C[C@H](CCN1CCCC(CS(C)(=O)=O)C1)N(c1cc(Cl)ccc1Cl)S(=O)(=O)c1ccc(Cl)cc1 (stereo partly drawn) [Example 1151, 4-chloro-N-(2,5-dichlorophenyl)-N-[3-[(3-(methylsulfonyl)methyl]-1-piperidinyl]-1(R)-methylpropyl)benzenesulfonamide]
- IC50 [3]: 100 to 500 nM

Compound: CC([C@@H]1CCCN1CCS(C)(=O)=O)N(c1cc(Cl)ccc1Cl)S(=O)(=O)c1ccc(Cl)cc1 (stereo partly shown) [Example 1253]
- IC50 [3]: 100 to 500 nM

Compound: 3-[2-(2-{[(4-chlorophenyl)sulfonyl]-2,5-difluoroanilino}-1-methylethyl)-5-fluorophenyl]butanoic acid [Example 940]
- IC50 [6]: > 500 nM

Compound: N-{3-[2-({[(4-chlorophenyl)sulfonyl]-2,5-difluoroanilino}methyl)phenoxy]propyl}-N-methyl-4-(trifluoromethoxy)benzamide [Example 873]
- IC50 [6]: 100 to 500 nM

Compound: C[C@H](CCC[S+](C)[O-])N(c1cc(Cl)ccc1Cl)S(=O)(=O)c1ccc(Cl)cc1 (stereo partly drawn) [Example 1171, 4-chloro-N-[2,5-dichlorophenyl]-N-[1(R)-methyl-(4-methylsulfinyl)butyl]benzenesulfonamide]
- IC50 [3]: ≤ 25 nM

Compound: C[C@H](c1ccc(F)cc1CCCCS(=O)(=O)N1CCS(=O)(=O)CC1)N(c1cc(F)ccc1F)S(=O)(=O)c1ccc(Cl)cc1 [Example 1071]
- IC50 [6]: > 500 nM

Compound: O=C1CCN(CCCOc2ccccc2CN(c2ccccc2)S(=O)(=O)c2ccc(Cl)cc2)CC1 [Example 968, 4-chloro-N-{2-[3-(4-oxo-1-piperidinyl)propoxy]benzyl}-N-phenylbenzenesulfonamide hydrochloride]
- IC50 [4]: > 500 nM

Compound: C[C@H](c1ccccc1CN1CCCCC1)N(c1cc(F)ccc1F)S(=O)(=O)c1ccc(Cl)cc1 [Example 939, 4-chloro-N-(2,5-difluorophenyl)-N-{(1R)-1-[2-(1-piperidinylmethyl)phenyl]ethyl}benzenesulfonamide hydrochloride]
- IC50 [6]: > 500 nM

Compound: CC(c1ccccc1OCCN(C)S(=O)(=O)CC(F)(F)F)N(c1cc(F)ccc1F)S(=O)(=O)c1ccc(Cl)cc1 (stereo not shown) [Example 701, 4-chloro-N-(2,5-difluorophenyl)-N-{1-[2-(2-{methyl[(2,2,2-trifluorophenyl)sulfonyl]amino}ethoxy)phenyl]ethyl}benzenesulfonamide]
- IC50 [7]: 100 to 500 nM

Compound: C[C@H](CCCS(=O)(=O)Cl)N(c1cc(Cl)ccc1Cl)S(=O)(=O)c1ccc(Cl)cc1 [Example 18]
- IC50 (Table B, transfected H4 cells stably expressing APP, approximately 16 hours incubation, amyloid β in medium by ELISA, read-out: ACTIVITY (inhibitory concentration IC50, inhibition of amyloid β production)): ≤ 25 nM

Compound: N-{3-[2-(1-{[(4-chlorophenyl)sulfonyl]-2,5-difluoroanilino}ethyl)phenoxy]propyl}-4-fluoro-N-methylbenzamide [Example 654]
- IC50 [7]: 100 to 500 nM

Compound: CC(=O)SCCCOc1ccccc1CN(c1ccccc1)S(=O)(=O)c1ccc(Cl)cc1 [Example 341, S{3-[2-({[(4-chlorophenyl)sulfonyl]anilino}methyl)phenoxy]propyl}ethanethioate]
- IC50 [2]: 50 to 100 nM

Compound: CC(c1ccccc1OCCCN1CCCCC1)N(c1cc(F)ccc1F)S(=O)(=O)c1ccc(Cl)cc1 (stereo not shown) [Example 236, 4-Chloro-N-(2,5-difluorophenyl)-N-(1-{2-[3-(1-piperidinyl)propoxy]phenyl}ethyl)benzenesulfonamide Hydrochloride]
- IC50 (read-out: ACTIVITY (inhibitory concentration IC50, inhibition of amyloid β production)): 25 to 50 nM

Compound: (2E)-1-N-(benzyloxy)-3-[2-({[(4-chlorophenyl)sulfonyl]anilino}methyl)phenyl]-2-propenamide hydrochloride [Example 1093]
- IC50 [3]: > 10000 nM

Compound: CC(c1ccccc1OCCCn1ccnc1)N(c1cc(F)ccc1F)S(=O)(=O)c1ccc(Cl)cc1 (stereo not shown) [Example 1047, 4-chloro-N-(2,5-difluorophenyl)-N-(1-{2-[3-(1H-imidazol-1-yl)propoxy]phenyl}ethyl)benzenesulfonamide]
- IC50 [6]: > 500 nM

Compound: 4-[2-((1R)-1-{[(4-chlorophenyl)sulfonyl]-2,5-difluoroanilino}ethyl)-5-fluorophenyl]-N-(cyanomethoxy)butanamide [Example 1079]
- IC50 [6]: > 500 nM

Compound: 3-bromo-N-{3-[2-(1-{[(4-chlorophenyl)sulfonyl]-2,5-difluoroanilino}ethyl)phenoxy]propyl}benzamide [Example 829]
- IC50 [6]: 100 to 500 nM

Compound: C[C@H](CCCSc1ccccc1)N(c1cc(Cl)ccc1CO)S(=O)(=O)c1ccc(Cl)cc1 [Example 1226, 4-chloro-N-[5-chloro-2-(hydroxymethyl)phenyl]-N-[1(R)-methyl-(4-phenylthio)butyl]benzenesulfonamide]
- IC50 [3]: ≤ 25 nM

Compound: O=S(=O)(c1ccc(Cl)cc1)N(Cc1ccccc1OCCCN1CCCC(O)C1)c1ccccc1 (stereo not shown) [Example 310, 4-Chloro-N-{2-[3-(3-hydroxy-1-piperidinyl)propoxy]benzyl}-N-phenylbenzenesulfonamide Hydrochloride]
- IC50 [2]: 50 to 100 nM

Compound: COC(=O)[C@@H](NC(=O)CCCC[C@@H](C)N(c1cc(Cl)ccc1F)S(=O)(=O)c1ccc(Cl)cc1)C(C)C [Example 1261, (R)-4-Chloro-N-(5-chloro-2-fluorophenyl)-N-[6-[N-(S)-[1-(methoxycarbonyl)-2-methylpropyl]amino]-1-methyl-6-oxohexyl]benzenesulfonamide]
- IC50 [3]: ≤ 25 nM

Other lines, results leading:

- IC50 (Homo sapiens, 16 h, transfected H4 cells stably expressing APP, approx. 16 h incubation, amyloid β in medium by ELISA, read-out: ACTIVITY (IC50, inhibition of amyloid β production)): 100 to 500 nM
Compound: O=C(c1ccc(F)c(F)c1F)N1CCCCC1CCOc1ccccc1CN(c1cc(F)ccc1F)S(=O)(=O)c1ccc(Cl)cc1 (stereo not shown) [Example 797, 4-chloro-N-(2,5-difluorophenyl)-N-(2-{2-[1-(2,3,4-trifluorobenzoyl)-2-piperidinyl]ethoxy}benzyl)benzenesulfonamide]

- IC50 [1]: 50 to 100 nM
Compound: C[C@H](c1ccccc1Cn1ncnn1)N(c1cc(F)ccc1F)S(=O)(=O)c1ccc(Cl)cc1 [Example 396]

- IC50 [2]: 50 to 100 nM
Compound: COC(=O)C(N)CS(=O)(=O)Cc1cc(F)ccc1[C@@H](C)N(c1cc(F)ccc1F)S(=O)(=O)c1ccc(Cl)cc1 (stereo partly drawn) [Example 470, Methyl 2-amino-3-{[2-(1R)-1-{[(4-chlorophenyl)sulfonyl]-2,5-difluoroanilino}ethyl)-5-fluorobenzyl]sulfonyl}propanoate Hydrochloride]

- IC50 [4]: > 500 nM
Compound: C[C@H](c1ccc(F)cc1CCCC(=O)NN(C)C)N(c1cc(F)ccc1F)S(=O)(=O)c1ccc(Cl)cc1 [Example 1078, 4-chloro-N-(2,5-difluorophenyl)-N-((1R)-1-{2-[4-(2,2-dimethylhydrazino)-4-oxobutyl]-4-fluorophenyl}ethyl)benzenesulfonamide]

- IC50 [4]: > 500 nM
Compound: O=S(=O)(c1ccc(Cl)cc1)N(Cc1ccccc1OCCCN1CCCCC1)C1CCCCCC1 [Example 897, 4-chloro-N-cycloheptyl-N-{2-[3-(1-piperidinyl)propoxy]benzyl}benzenesulfonamide hydrochloride]

- IC50 [5]: > 500 nM
Compound: C[C@H](C(=O)N[C@H](CO)Cc1ccccc1)N(c1cc(Cl)ccc1F)S(=O)(=O)c1ccc(Cl)cc1 [Example 1355]

- IC50 [5]: 100 to 500 nM
Compound: C[C@H](C(=O)NC1CCCCCCC1)N(c1cc(Cl)ccc1F)S(=O)(=O)c1ccc(Cl)cc1 [Example 1345]

- IC50 [6]: > 500 nM
Compound: CC(C)CC(C)C(=O)N(C)CCOc1ccccc1C(C)N(c1cc(F)ccc1F)S(=O)(=O)c1ccc(Cl)cc1 (stereo not shown) [Example 930, N-{2-[2-(1-{[(4-chlorophenyl)sulfonyl]-2,5-difluoroanilino}ethyl)phenoxy]ethyl}-N,2,4-trimethylpentamide]

- IC50 [5]: ≤ 25 nM
Compound: C[C@H](COC(=O)NC(C)(C)C)N(c1cc(Cl)ccc1CO)S(=O)(=O)c1ccc(Cl)cc1 [Example 1282]

- IC50 [4]: > 500 nM
Compound: O=C(c1ccc2c(c1)OCO2)N1CCCCC1CCOc1ccccc1CN(c1cc(F)ccc1F)S(=O)(=O)c1ccc(Cl)cc1 (stereo not shown) [Example 921, N-(2-{2-[1-(1,3-benzodioxol-5-ylcarbonyl)-2-piperidinyl]ethoxy}benzyl)-4-chloro-N-(2,5-difluorophenyl)benzenesulfonamide]

- IC50 (Homo sapiens, 16 h, transfected H4 cells stably expressing APP constructs, approximately 16 hours incubation, amyloid β in medium by ELISA, read-out: ACTIVITY (IC50, inhibition of amyloid β production)): ≤ 25 nM
Compound: C[C@H](CCC[N+](=O)[O-])N(c1cc(Cl)ccc1Cl)S(=O)(=O)c1ccc(Cl)cc1 [Example 1099, 4-chloro-N-(2,5-dichlorophenyl)-N-[4-nitro-1(R)-methylbutyl]benzenesulfonamide]

- IC50 [4]: > 500 nM
Compound: COc1ccccc1C(=O)N1CCCCC1CCOc1ccccc1CN(c1cc(F)ccc1F)S(=O)(=O)c1ccc(Cl)cc1 (stereo not shown) [Example 902, 4-chloro-N-(2,5-difluorophenyl)-N-(2-{2-[1-(2-methoxybenzoyl)-2-piperidinyl]ethoxy}benzyl)benzenesulfonamide]

- IC50 [5]: > 500 nM
Compound: C[C@H](C(=O)Nc1ccc2[nH]ncc2c1)N(c1cc(Cl)ccc1F)S(=O)(=O)c1ccc(Cl)cc1 [Example 1311]

- IC50 [1]: 50 to 100 nM
Compound: CC(c1ccccc1OCCCN(C)S(=O)(=O)c1ccc([N+](=O)[O-])cc1)N(c1cc(F)ccc1F)S(=O)(=O)c1ccc(Cl)cc1 (stereo not shown) [Example 410, 4-chloro-N-(2,5-difluorophenyl)-N-{1-[2-(3-{methyl[(4-nitrophenyl)sulfonyl]amino}propoxy)phenyl]ethyl}benzenesulfonamide]
